Results on four compounds are retold here after US10258033B2 (Eden Research PLC, priority 2005, dated 2019).

The subject of series [1] is S. aureus. The series can be described thus: MIC of terpene emulsions and fresh or freeze-dried Baker's YP / SAF Mannan encapsulated terpenes against S. aureus. The series is classed as cell-based. The following applies: for MIC μg/ml terpene, Bakers Freeze Dried / MIC μg/ml terpene, Bakers Fresh: encapsulated in Baker's YP; for MIC μg/ml terpene, SAF Mannan Freeze Dried / MIC μg/ml terpene, SAF Mannan Fresh: encapsulated in SAF Mannan; for MIC μg/ml terpene, Emulsion: not encapsulated. As to the method: The results of a protocol performed to compare the MIC of fresh versus freeze dried hollow glucan particle encapsulated terpene formulations are shown below in Table 13. A simple terpene emulsion was also tested and the results are shown for comparison.

A short description of series [2]: Suspension and solution of citral in water. The series is classed as physicochemical. An excerpt:
In one embodiment the terpene component includes one or more terpenes which contain oxygen.

Series [3] concerns E. coli. The note with it: cited from earlier work.
In series [4] the test system is H. pylori. The note with it: cited from earlier work.

In the case of `CC(C)=CCCC(C)=CC=O` [Citral, 3,7-dimethyl-2,6-octadien-1-al], in series [1], the “MIC μg/ml terpene, Bakers Freeze Dried” value was found to be 0.05 μg/ml terpene; the “MIC μg/ml terpene, Bakers Fresh” value came out at 0.01 μg/ml terpene; the “MIC μg/ml terpene, SAF Mannan Freeze Dried” value is listed as above 0.03 μg/ml terpene; the “MIC μg/ml terpene, SAF Mannan Fresh” value is on record as 0.01 μg/ml terpene. Moreover, in series [1], the “MIC μg/ml terpene, Emulsion” value stood at 0.94 μg/ml terpene. In addition, in series [2], the “solution, maximum concentration” value is “up to 500 ppm” and the “stable suspension, maximum concentration” value is “up to 2500 ppm”. Moreover, the “stable suspension of hollow glucan particles incorporating citral” value in series [2] (ppt citral) came out at 25 ppt. Besides, in series [3], the “concentration in growth media that reduced the concentration of E. coli” value is on record as “more than 0.01%” and the “concentration with bactericidal effect” value is 0.08%.
As for `C=CCc1ccc(O)c(OC)c1` [Eugenol], in series [1], the “MIC μg/ml terpene, Bakers Freeze Dried” value turned out to be 0.05 μg/ml terpene; the “MIC μg/ml terpene, Bakers Fresh” value is given as 0.03 μg/ml terpene; the “MIC μg/ml terpene, SAF Mannan Freeze Dried” value stood at 0.05 μg/ml terpene; the “MIC μg/ml terpene, SAF Mannan Fresh” value was 0.01 μg/ml terpene. Also, the “MIC μg/ml terpene, Emulsion” value in series [1] came to 0.12 μg/ml terpene.
Take `CC(C)=CCC/C(C)=C/CO` [Geraniol]: in series [1], the “MIC μg/ml terpene, Bakers Freeze Dried” value was determined as 0.06 μg/ml terpene; the “MIC μg/ml terpene, Bakers Fresh” value is reported as 0.03 μg/ml terpene; the “MIC μg/ml terpene, SAF Mannan Freeze Dried” value is listed as above 0.03 μg/ml terpene; the “MIC μg/ml terpene, SAF Mannan Fresh” value came to 0.02 μg/ml terpene. For the same compound, the “MIC μg/ml terpene, Emulsion” value in series [1] is on record as 0.47 μg/ml terpene. In series [4], the “concentration that inhibited the growth of H. pylori in vitro” value was 2 mg/L.
Regarding L-carvone, in series [1], the “MIC μg/ml terpene, Bakers Freeze Dried” value was above 0.04 μg/ml terpene; the “MIC μg/ml terpene, Bakers Fresh” value was found to be 0.1 μg/ml terpene; the “MIC μg/ml terpene, SAF Mannan Freeze Dried” value is reported as above 0.02 μg/ml terpene; the “MIC μg/ml terpene, SAF Mannan Fresh” value is reported as 0.01 μg/ml terpene. Moreover, in series [1], the “MIC μg/ml terpene, Emulsion” value is on record as 3.75 μg/ml terpene.
